These results are taken from US8114880B2, “Piperidine or piperazine substituted tetrahydro-naphthalene-1-carboxylic acid MTP inhibiting compounds” (Janssen Pharmaceutica N.V., priority 2006, dated 2012).

Molecules are shown by their SMILES.

As usually defined, the IC50 is the concentration that gives 50% inhibition.

Chain of MTP (P55157 19-894, species assumed): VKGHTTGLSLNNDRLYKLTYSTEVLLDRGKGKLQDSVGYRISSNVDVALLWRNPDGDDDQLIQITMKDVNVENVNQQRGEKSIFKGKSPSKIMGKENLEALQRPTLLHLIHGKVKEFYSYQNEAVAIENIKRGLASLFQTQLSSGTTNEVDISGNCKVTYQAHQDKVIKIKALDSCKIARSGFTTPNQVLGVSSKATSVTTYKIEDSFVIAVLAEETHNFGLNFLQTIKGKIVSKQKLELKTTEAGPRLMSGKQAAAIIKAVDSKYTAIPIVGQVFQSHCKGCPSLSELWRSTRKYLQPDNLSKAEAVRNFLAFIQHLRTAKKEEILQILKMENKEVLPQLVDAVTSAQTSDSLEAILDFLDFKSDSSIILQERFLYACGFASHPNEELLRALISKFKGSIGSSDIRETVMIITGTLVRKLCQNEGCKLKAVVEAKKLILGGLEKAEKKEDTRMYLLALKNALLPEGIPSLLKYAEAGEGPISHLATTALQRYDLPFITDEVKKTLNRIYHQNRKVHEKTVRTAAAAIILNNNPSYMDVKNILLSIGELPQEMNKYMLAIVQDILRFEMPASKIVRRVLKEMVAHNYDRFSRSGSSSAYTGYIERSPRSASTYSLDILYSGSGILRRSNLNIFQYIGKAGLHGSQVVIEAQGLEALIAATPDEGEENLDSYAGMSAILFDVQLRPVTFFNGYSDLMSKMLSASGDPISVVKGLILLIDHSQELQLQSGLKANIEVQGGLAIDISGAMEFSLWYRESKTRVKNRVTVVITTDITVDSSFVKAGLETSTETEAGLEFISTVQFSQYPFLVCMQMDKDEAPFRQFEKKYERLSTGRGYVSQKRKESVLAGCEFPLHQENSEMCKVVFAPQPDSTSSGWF
Chain of MTP (P07237 18-508 partner, species assumed): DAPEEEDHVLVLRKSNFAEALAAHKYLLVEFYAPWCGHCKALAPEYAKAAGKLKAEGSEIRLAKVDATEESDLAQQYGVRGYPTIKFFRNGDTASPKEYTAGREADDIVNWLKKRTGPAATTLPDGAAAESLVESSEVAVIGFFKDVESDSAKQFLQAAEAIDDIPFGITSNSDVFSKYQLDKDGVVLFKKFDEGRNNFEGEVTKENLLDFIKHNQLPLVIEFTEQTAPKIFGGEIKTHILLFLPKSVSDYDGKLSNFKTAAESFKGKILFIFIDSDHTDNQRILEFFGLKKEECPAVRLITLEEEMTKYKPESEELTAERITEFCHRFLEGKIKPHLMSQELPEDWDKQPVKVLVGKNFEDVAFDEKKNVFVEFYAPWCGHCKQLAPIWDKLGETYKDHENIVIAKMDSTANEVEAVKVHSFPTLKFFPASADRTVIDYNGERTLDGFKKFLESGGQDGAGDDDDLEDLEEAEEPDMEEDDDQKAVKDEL

One assay relates to HepG2 cells. The assay can be described thus: Quantification of the secretion of ApoB. The following applies: Homo sapiens, HepG2, 24 h, 24 hours of incubation, pIC50 = -log IC50. The format is cell-based. The protocol:
HepG2 cells were cultured in 24-well plates in MEM Rega 3 containing 10% fetal calf serum. At 70% confluency, the medium was changed and the test compound or carrier (DMSO, 0.4% final concentration) was added. After 24 hours of incubation, the medium was transferred to Eppendorf tubes and cleared by centrifugation. A sheep antibody directed against either apoB was added to the supernatant and the mixture was kept at 8° C. for 24 hours. Then, rabbit anti-sheep antibody was added and the immune complex was allowed to precipitate for 24 hours at 8° C. The immunoprecipitate was pelleted by centrifugation for 25 minutes at 1320 g and washed twice with a buffer containing 40 mM Mops, 40 mM NaH2PO4, 100 mM NaF, 0.2 mM DTT, 5 mM EDTA, 5 mM EGTA, 1% Triton-X-100, 0.5% sodium deoxycholate (DOC), 0.1% SDS, 0.2 μM leupeptin and 0.2 μM PMSF. Radioactivity in the pellet was quantified by liquid scintillation counting. The IC50 values are usually converted to pIC50 values (=−log IC50 value) for ease of use.
`CCOC(=O)CCCCNC(=O)[C@@]1(c2ccccc2)CC[C@H](C(=O)N2CCC(NC(=O)c3ccccc3OC)CC2)c2ccccc21` [Co. No. 205] had an IC50 of 0.0755 µM.

As to `COc1ccccc1C(=O)NC1CCN(C(=O)[C@H]2CC[C@@](C(=O)NCCCCC(=O)OC(C)C)(c3ccccc3)c3ccccc32)CC1` [Co. No. 206], the midpoint of inhibition, the IC50, lay at 0.0424 µM.

`COC(=O)CCCCCNC(=O)[C@@]1(c2ccccc2)CC[C@H](C(=O)N2CCC(NC(=O)c3ccccc3OC)CC2)c2ccccc21` [Co. No. 207] gave an IC50 of more than 1 µM.

`COc1ccccc1C(=O)NC1CCN(C(=O)[C@H]2CC[C@@](C(=O)NCCCCCC(=O)OC(C)C)(c3ccccc3)c3ccccc32)CC1` [Co. No. 208]: the IC50 was 0.0577 µM.

Take `COc1ccccc1C(=O)NC1CCN(C(=O)[C@H]2CC[C@@](C(=O)NCCCCCC(=O)OC(C)(C)C)(c3ccccc3)c3ccccc32)CC1` [Co. No. 209]: the IC50 is more than 1 µM.

Turning to `CCOC(=O)[C@H](CCCCNC(=O)OC(C)(C)C)NC(=O)[C@@]1(c2ccccc2)CC[C@H](C(=O)N2CCC(NC(=O)c3ccccc3OC)CC2)c2ccccc21` [Co. No. 210], half-maximal inhibition (IC50) required 0.00867 µM.

As for `CCOC(=O)NCCCC[C@H](NC(=O)[C@@]1(c2ccccc2)CC[C@H](C(=O)N2CCC(NC(=O)c3ccccc3OC)CC2)c2ccccc21)C(=O)OCC` [Co. No. 211], inhibition was half-maximal at 0.0957 µM (IC50).

Compound `CCOC(=O)NCCCC[C@H](NC(=O)[C@@]1(c2ccccc2)CC[C@H](C(=O)N2CCC(NC(=O)c3ccccc3OC)CC2)c2ccccc21)C(=O)OC(C)C` [Co. No. 212] had an IC50 of 0.0223 µM.

On to `COc1ccccc1C(=O)NC1CCN(C(=O)[C@H]2CC[C@@](C(=O)N[C@@H](CCCCNC(=O)OC(C)C)C(=O)OC(C)C)(c3ccccc3)c3ccccc32)CC1` [Co. No. 213], for which the IC50 was 0.0059 µM.

`COC(=O)[C@H](CCCCNC(=O)[C@@]1(c2ccccc2)CC[C@H](C(=O)N2CCC(NC(=O)c3ccccc3OC)CC2)c2ccccc21)NC(C)=O` [Co. No. 214]: the concentration for half-maximal inhibition (IC50) was more than 1 µM.

Take `COC(=O)[C@@H](CCCCNC(=O)OC(C)(C)C)NC(=O)[C@@]1(c2ccccc2)CC[C@H](C(=O)N2CCC(NC(=O)c3ccccc3OC)CC2)c2ccccc21` [Co. No. 215]: the IC50 was 0.0184 µM.

With `CCOC(=O)[C@@H](CCCCNC(=O)OC(C)(C)C)NC(=O)[C@@]1(c2ccccc2)CC[C@H](C(=O)N2CCC(NC(=O)c3ccccc3OC)CC2)c2ccccc21` [Co. No. 216], the midpoint of inhibition, the IC50, lay at 0.0311 µM.

In turn, `CCOC(=O)NCCCC[C@@H](NC(=O)[C@@]1(c2ccccc2)CC[C@H](C(=O)N2CCC(NC(=O)c3ccccc3OC)CC2)c2ccccc21)C(=O)OCC` [Co. No. 217] had an IC50 of 0.256 µM.

With `CCOC(=O)NCCCC[C@@H](NC(=O)[C@@]1(c2ccccc2)CC[C@H](C(=O)N2CCC(NC(=O)c3ccccc3OC)CC2)c2ccccc21)C(=O)OC(C)C` [Co. No. 218], it took 0.065 µM to reach half-maximal inhibition (IC50).

With `COC(=O)[C@@H](CCCCNC(=O)OC(C)C)NC(=O)[C@@]1(c2ccccc2)CC[C@H](C(=O)N2CCC(NC(=O)c3ccccc3OC)CC2)c2ccccc21` [Co. No. 219], the IC50 is 0.3 µM.

Regarding `CCOC(=O)[C@@H](CCCCNC(=O)OC(C)C)NC(=O)[C@@]1(c2ccccc2)CC[C@H](C(=O)N2CCC(NC(=O)c3ccccc3OC)CC2)c2ccccc21` [Co. No. 220], the half-inhibitory concentration (IC50) was 0.0211 µM.

Take `COc1ccccc1C(=O)NC1CCN(C(=O)[C@H]2CC[C@@](C(=O)N[C@H](CCCCNC(=O)OC(C)C)C(=O)OC(C)C)(c3ccccc3)c3ccccc32)CC1` [Co. No. 221]: the half-inhibitory concentration (IC50) was 0.135 µM.

Compound `CC(C)OC(=O)CCNC(=O)[C@@]1(c2ccccc2)CC[C@H](C(=O)N2CCC(NC(=O)c3cccn(C)c3=O)CC2)c2ccccc21` [Co. No. 222] gave a half-inhibitory concentration (IC50) of more than 1 µM.

For the compound `CCOC(=O)CCCNC(=O)[C@@]1(c2ccccc2)CC[C@H](C(=O)N2CCC(NC(=O)c3cccn(C)c3=O)CC2)c2ccccc21` [Co. No. 225], the IC50 was more than 1 µM.

The target of the next assay is MTP (Homo sapiens, UniProt P55157). The assay can be described thus: MTP assay (triglyceride transfer from donor to acceptor vesicles). The format is biochemical. The following applies: MTP activity, percent triglyceride transfer from donor to acceptor vesicles, 37° C. The gist of the method:
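Radiolabelled triglyceride transfer from donor vesicles (phosphatidylcholine, 7.5 mol % cardiolipin, 0.25 mol % glycerol tri[1-^14C]-oleate) to phosphatidylcholine acceptor vesicles with BSA, pH 7.5 Tris buffer; compounds in DMSO (0.13% final), 5 min preincubation at 37° C before MTP addition. Donor vesicles removed on DEAE-52; acceptor-supernatant ^14C counts give percent transfer.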
With `CCOC(=O)CCCCNC(=O)[C@@]1(c2ccccc2)CC[C@H](C(=O)N2CCC(NC(=O)c3ccccc3OC)CC2)c2ccccc21` [Co. No. 205], inhibition was half-maximal at 0.00545 µM (IC50).

`COc1ccccc1C(=O)NC1CCN(C(=O)[C@H]2CC[C@@](C(=O)NCCCCC(=O)OC(C)C)(c3ccccc3)c3ccccc32)CC1` [Co. No. 206] gave an IC50 of 0.00296 µM.

Regarding `COC(=O)CCCCCNC(=O)[C@@]1(c2ccccc2)CC[C@H](C(=O)N2CCC(NC(=O)c3ccccc3OC)CC2)c2ccccc21` [Co. No. 207], the IC50 was 0.00259 µM.

As for `COc1ccccc1C(=O)NC1CCN(C(=O)[C@H]2CC[C@@](C(=O)NCCCCCC(=O)OC(C)C)(c3ccccc3)c3ccccc32)CC1` [Co. No. 208], the half-maximal inhibitory concentration (IC50) is 0.00186 µM.

The compound `COc1ccccc1C(=O)NC1CCN(C(=O)[C@H]2CC[C@@](C(=O)NCCCCCC(=O)OC(C)(C)C)(c3ccccc3)c3ccccc32)CC1` [Co. No. 209] had an IC50 of 0.0362 µM.

As for `CCOC(=O)[C@H](CCCCNC(=O)OC(C)(C)C)NC(=O)[C@@]1(c2ccccc2)CC[C@H](C(=O)N2CCC(NC(=O)c3ccccc3OC)CC2)c2ccccc21` [Co. No. 210], the 50% inhibitory concentration (IC50) is 0.00295 µM.

The compound `CCOC(=O)NCCCC[C@H](NC(=O)[C@@]1(c2ccccc2)CC[C@H](C(=O)N2CCC(NC(=O)c3ccccc3OC)CC2)c2ccccc21)C(=O)OCC` [Co. No. 211] had a concentration for half-maximal inhibition (IC50) of 0.0061 µM.

As for `CCOC(=O)NCCCC[C@H](NC(=O)[C@@]1(c2ccccc2)CC[C@H](C(=O)N2CCC(NC(=O)c3ccccc3OC)CC2)c2ccccc21)C(=O)OC(C)C` [Co. No. 212], the IC50 is 0.00434 µM.

`COc1ccccc1C(=O)NC1CCN(C(=O)[C@H]2CC[C@@](C(=O)N[C@@H](CCCCNC(=O)OC(C)C)C(=O)OC(C)C)(c3ccccc3)c3ccccc32)CC1` [Co. No. 213]: the IC50 was 0.0031 µM.

Compound `COC(=O)[C@H](CCCCNC(=O)[C@@]1(c2ccccc2)CC[C@H](C(=O)N2CCC(NC(=O)c3ccccc3OC)CC2)c2ccccc21)NC(C)=O` [Co. No. 214] gave a concentration for half-maximal inhibition (IC50) of 0.0268 µM.

`COC(=O)[C@@H](CCCCNC(=O)OC(C)(C)C)NC(=O)[C@@]1(c2ccccc2)CC[C@H](C(=O)N2CCC(NC(=O)c3ccccc3OC)CC2)c2ccccc21` [Co. No. 215] gave an IC50 of 0.00292 µM.

Compound `CCOC(=O)[C@@H](CCCCNC(=O)OC(C)(C)C)NC(=O)[C@@]1(c2ccccc2)CC[C@H](C(=O)N2CCC(NC(=O)c3ccccc3OC)CC2)c2ccccc21` [Co. No. 216] showed an IC50 of 0.0067 µM.

The compound `CCOC(=O)NCCCC[C@@H](NC(=O)[C@@]1(c2ccccc2)CC[C@H](C(=O)N2CCC(NC(=O)c3ccccc3OC)CC2)c2ccccc21)C(=O)OCC` [Co. No. 217] had a half-maximal inhibitory concentration (IC50) of 0.00822 µM.

`CCOC(=O)NCCCC[C@@H](NC(=O)[C@@]1(c2ccccc2)CC[C@H](C(=O)N2CCC(NC(=O)c3ccccc3OC)CC2)c2ccccc21)C(=O)OC(C)C` [Co. No. 218] showed an IC50 of 0.00241 µM.

`COC(=O)[C@@H](CCCCNC(=O)OC(C)C)NC(=O)[C@@]1(c2ccccc2)CC[C@H](C(=O)N2CCC(NC(=O)c3ccccc3OC)CC2)c2ccccc21` [Co. No. 219] had a half-maximal inhibitory concentration (IC50) of 0.00424 µM.

As to `CCOC(=O)[C@@H](CCCCNC(=O)OC(C)C)NC(=O)[C@@]1(c2ccccc2)CC[C@H](C(=O)N2CCC(NC(=O)c3ccccc3OC)CC2)c2ccccc21` [Co. No. 220], half-maximal inhibition (IC50) was put at 0.00186 µM.

Turning to `COc1ccccc1C(=O)NC1CCN(C(=O)[C@H]2CC[C@@](C(=O)N[C@H](CCCCNC(=O)OC(C)C)C(=O)OC(C)C)(c3ccccc3)c3ccccc32)CC1` [Co. No. 221], the IC50 is 0.00178 µM.

Turning to `CC(C)OC(=O)CCNC(=O)[C@@]1(c2ccccc2)CC[C@H](C(=O)N2CCC(NC(=O)c3cccn(C)c3=O)CC2)c2ccccc21` [Co. No. 222], the midpoint of inhibition, the IC50, lay at 0.0458 µM.

Regarding `CCOC(=O)CCCNC(=O)[C@@]1(c2ccccc2)CC[C@H](C(=O)N2CCC(NC(=O)c3cccn(C)c3=O)CC2)c2ccccc21` [Co. No. 225], the IC50 is more than 0.1 µM.
